How the values were obtained:
MCF10A cells = experiment: Centrosome amplification (CA) by microscopy, MCF10A cells; type: cell-based; details: for CA / peak extent of CA versus control levels: interphase and mitotic MCF10A cells, both concentrations (10 and 25 μM), over 24 h
Description: (§1) Consequently, CA was assessed in cultures treated with different concentrations of declustering drugs for 6, 12, 18, or 24 h and untreated controls via microscopy. Centrosomes were identified by γ-tubulin and centrin-2 colocalization at discrete foci.
(§2) To determine whether the CA-inducing activity of declustering drugs is restricted to cancer cells, two non-malignant cell lines, mammary fibrocystic (MCF10A) cells and adult human dermal fibroblasts (HDFs) were treated with these drugs. […] In comparison, 10 and 25 µM RBN increased peak CA over controls in interphase cells (p<0.001 and p=0.001, respectively), with the lower concentration dramatically augmenting peak CA to 56% of cells versus 15% for the higher dose (FIG. 13, panel B).

[1] = tested on: mammary fibrocystic (MCF10A) cells; experiment: Peak subG1 fraction after declustering drugs, non-malignant MCF10A cells; type: cell-based; details: for peak subG1 percent compared to controls: MCF10A cells; for Peak subG1 percents over 48 h: MCF10A
Description: (§3) To evaluate the impact of putative declustering drugs on cell cycle progression and hypodiploidy (<2N DNA content, which may indicate apoptotic cells), MDA-MB-231 (231), PC3, and HeLa cells were treated with different concentrations of declustering drugs, stained with propidium iodide, labeled with anti-MPM2 antibody, and then assessed by flow cytometry at multiple time points over 48 hr. […] The duration, highest degree, and rapidity of onset of MA varied between drugs, drug concentrations, and cell lines (data not shown). In general, the maximum MA achieved was less pronounced in Nos- and PJ-treated cells. Drug-induced onset of MA was corroborated by substantial increases in cyclin B1 levels in all cell lines. For most cases, prolonged MA (˜24 hr in duration) was followed by a substantial increase in the subG1 population fraction. […] Instances where the subGl fraction was elevated without cleaved caspase-3 may either represent caspase-independent cell death or the presence of hypodiploid cells whose fate is unclear. In general, no consistent associations between the extent, duration, or timing of MA within drugs or across cell lines was found.
as §2
Importantly, a therapeutic window exists for several of these agents at the concentrations and in the cell lines tested compared to cancer cells.

MDA-MB-231 (231) cells = experiment: Peak subG1 fraction by flow cytometry (propidium iodide) after declustering drugs, 231 cells; type: cell-based, human
Description: as §3

[2] = tested on: adult human dermal fibroblasts (HDFs); experiment: Peak subG1 fraction after declustering drugs, non-malignant HDFs; type: cell-based; details: for Peak subG1 percents over 48 h: HDF; for death in cancer cell lines vs. HDFs: both concentrations
Description: as §3, §2
In HDFs, all the drugs tested increased peak subG1 over controls in a significant fashion (p<0.01 for all) (Table 2). […] Thus, it appears that there may be clinically relevant therapeutic windows for these drugs depending on the type of cancer and the drug dosage.

HeLa cells = experiment: Peak subG1 fraction by flow cytometry after declustering drugs, HeLa cells; type: cell-based
Description: as §3

PC3 cells = experiment: Peak subG1 fraction by flow cytometry after declustering drugs, PC3 cells; type: cell-based
Description: as §3

231 cells = experiment: Centrosome amplification (CA) by microscopy (γ-tubulin/centrin-2 foci), 231 cells; type: cell-based, human; details: 231 cells, 25 μM
Description: Consequently, CA was assessed in cultures treated with different concentrations of declustering drugs for 6, 12, 18, or 24 h and untreated controls via microscopy. Centrosomes were identified by γ-tubulin and centrin-2 colocalization at discrete foci. […] The peak percent CA detected over 24 h is shown in FIG. 13 (only statistically significant (P<0.05) increases over control values are represented in the Figures). To better understand the “potency” of drug-induced CA with time, the average fold change in CA over controls over 24 h was assessed (FIG. 12, panel A), whereby the extent of CA across time points (i.e., 6, 12, 18, and 24 hr) was averaged and then divided by the extent of CA in control (i.e., 0 hr). All of the drugs at least doubled the peak extent of CA in all cell lines tested (FIG. 12, panel A), although the final extent of CA could be small or large in magnitude depending on the initial centrosomal burden as shown in FIG. 11. […] The peak extent in interphase HeLa cells was somewhat less at 30.7% and 48.1% for 10 and 25 μM RBN, respectively (FIG. 13, panel A). For Nos and BN, there was no major difference in CA levels in interphase versus mitotic cells.

[3] = tested on: PLK4, Cyclin E, and Aurora A; experiment: Western blotting of markers of centrosome amplification; type: cell-based; details: 231 cells, 25 μM
[4] = tested on: adult human dermal fibroblasts (HDFs); experiment: Centrosome amplification (CA) by microscopy, HDFs; type: cell-based; details: for extent of CA over controls: HDFs, any of the concentrations or time points assessed
Description: as §1, §2

N1E-115 cells [5] = experiment: Interphase declustering index (DI) in N1E-115 cells; type: cell-based, murine; details: 6-h treatment, 25 interphase cells, drugs at their respective IC50 concentrations
Description: To evaluate their effect on interphase clustering, N1E-115 cells were treated with these drugs at their respective IC50 concentrations for 0, 3, 6 and 9 h and co-immunostained for γ-tubulin and α-tubulin to evaluate centrosomal spread and microtubule nucleation status, respectively.
Cell cycle phases were further evaluated via lamin A/C immunostaining to distinguish interphase declustering events from prophase centrosomal spread. To quantitate the spread of the interphase centrosomal cluster, a 3D reconstruction of z-stack images of 25 randomly-selected interphase cells from the 6-h treatment group of each drug were generated. By defining an ROI (region of interest) around the interphase centrosomal cluster, the volume of the cluster spread was calculated using Volocity software. Likewise, defining an ROI using the cell periphery provided the cell volume.

N1E-115 cells [6] = experiment: Golgi (GM130) and γ-tubulin co-immunostaining of drug-treated N1E-115 cells; type: cell-based, murine; details: data not shown
Source text: The Golgi, which is primarily responsible for posttranslational modification and protein sorting, also functions as a microtubule-organizing center (MTOC). It has been hypothesized that supernumerary centrosomes may better organize the Golgi to enhance directional cell migration. To investigate what happens to the Golgi upon declustering drug-induced dispersal of the interphase centrosomal cluster, drug-treated N1E-115 cells were co-immunostained with GM130 (a cis-Golgi matrix protein crucial for maintaining its structure) and γ-tubulin.

N1E-115 cells [7] = experiment: Vinculin localization in serum-starved N1E-115 cells; type: cell-based, murine; details: serum-starved (SS) cells
Source text: Vinculin stabilizes cell-substrate contacts in neuronal cells undergoing neuritogenesis, while activation by actin-binding proteins mobilizes vinculin to focal adhesions. To determine the localization of vinculin in the neurite extensions and the effect of declustering agents on its localization, N1E-115 cells were immunostained cells for vinculin and stained F-actin using rhodamine-phalloidin.

[8] = tested on: ZR-75-30 cells with amplified centrosomes (ZR-A); experiment: Sub-G1 population in ZR-75-30 cells with amplified centrosomes (ZR-A) versus parent cells; type: cell-based; details: 25 μM, 48 h
Description: Panel A depicts representative DNA histograms comparing cell-cycle kinetics of ZR-75-30 cells and ZR-A cells treated with bromonoscapine (BN, 25 μM), griseofulvin (GF, 25 μM) or PJ34 (25 μM), respectively for 48 h. […] Panel B depicts a quantitative comparison of sub-G1 population in ZR-75-30 and ZR-A cells upon treatment with the three drugs with the same concentration (25 μM) for the same duration (48 h).
Accordingly, these cells can be pharmacologically manipulated with aphidicolin to generate extra centrosomes. […] Following aphidicolin wash-out, cells were stained using anti-centrin-2 antibodies to verify extra centrosomes by immunofluorescence confocal microscopy. About ˜60% ZR-75-30 cells generated extra centrosomes (6-8 per cell) and were evaluated for their sensitivity to the three drugs, griseofulvin, bromonoscapine, and PJ34, and compared with parent ZR-75-30 cells with normal centrosomes.

N1E-115 cells [9] = experiment: Ki67 and cleaved caspase-3 immunostaining of serum-starved N1E-115 cells; type: cell-based, murine; details: RedBr-Nos 5 μM, Griseofulvin 10 μM, PJ-34 10 μM
N1E-115 cells [10] = experiment: Drug sensitivity (IC50) of N1E-115 cells; type: cell-based, murine; details: Mus musculus; N1E-115 cells (data not shown)
N1E-115 cells [11] = experiment: Neuritogenesis (neurite extension) in serum-starved N1E-115 cells; type: cell-based, murine
Description: N1E-115 cells grown in serum-starved (SS) medium were evaluated to determine the extent of neurite formation after 48 h of treatment with RedBr-Nos (5 μM), Griseofulvin (10 μM), PJ-34 (10 μM), Paclitaxel (0.05 μM) treatment or untreated control cells (i.e., serum-starved medium (SS) alone). Panels Ai and Aii depict quantitative bar graphs representing the average length of neurites and percentage of population of cells showing neurite length >10 μm, respectively. A hundred cells were counted in each case. […] Panel B depicts an immunoblot showing CLASP1 expression levels in control (C) and CLASP1 siRNA-transfected N1E-115 cells.
Neuritogenesis is a process in nerve cells involving the extension of polarized, elongated neurites. N1E-115 cells usually extend only one major neurite per cell, which can vary in length from 5 to 500 μm. The growth cones of the neurites serve as primary focal points of motility. The effect of declustering agents on cell motility was evaluated by assessing the length and frequency of neurites formed in a serum-free medium on a laminin-coated surface.

IC50 (N1E-115 cells [10]) | Compound | CA / peak extent of CA versus control levels (MCF10A cells) | peak subG1 percent compared to controls [1] | Peak subG1 percents over 48 h ([1]; 10 μM) | Peak subG1 percents over 48 h ([1]; 25 μM) | Peak subG1 percents over 48 h (MDA-MB-231 (231) cells; 10 μM) | Peak subG1 percents over 48 h (MDA-MB-231 (231) cells; 25 μM) | Peak subG1 percents over 48 h ([2]; 10 μM) | Peak subG1 percents over 48 h ([2]; 25 μM) | death in cancer cell lines vs. HDFs [2] | Peak subG1 percents over 48 h (HeLa cells; 10 μM) | Peak subG1 percents over 48 h (HeLa cells; 25 μM) | Peak subG1 percents over 48 h (PC3 cells; 10 μM) | Peak subG1 percents over 48 h (PC3 cells; 25 μM) | extent of CA over controls [4] | interphase declustering index (DI): ratio of average cluster volume to average cell volume (N1E-115 cells [5]) | fragmentation of the interphase Golgi complex (N1E-115 cells [6]) | maximum (peak) subG1 fraction relative to control (MDA-MB-231 (231) cells; 25 μM) | vinculin localization and focal adhesion points (N1E-115 cells [7]) | sub-G1 population versus parent ZR-75-30 cells [8] | other results
 | COc1ccc2c(c1OC)C(=O)O[C@@H]2[C@H]1c2c(cc3c(c2OC)OCO3)CCN1C [Nos, noscapine] | neither concentrations of Nos or BN significantly increased CA over control levels | did not cause a significant increase | 4.1% | 4.2% | 26.3% | 43.9% | 14.8% | 11.2% | more death in all cancer cell lines vs. HDFs | 25.0% | 50.1% | 29.9% | 32.7% | did not significantly increase the extent of CA over controls |  |  |  |  |  | induction of CA (231 cells): failed to induce significant CA; expression levels of Cyclin E and PLK4 [3]: surge in the expression levels of Cyclin E and PLK4
25 µM | COC1=CC(=O)C[C@@H](C)[C@]12Oc1c(Cl)c(OC)cc(OC)c1C2=O [GF, griseofulvin] |  | did increase peak SubG1 |  | 22.7% |  | 62.0% |  | 32.9% | more death in 231 and HeLa cells |  | 59.5% |  | 33.7% |  | 0.28 | most robust effect | 6.4 × control | complete internalization of vinculin and complete loss of focal adhesion points | much higher sub-G1 population compared to parent ZR-75-30 cells | peak interphase CA (MCF10A cells; interphase MCF10A cells, 25 and 50 μM): 13-16%; CA in mitotic cells versus controls (MCF10A cells; mitotic MCF10A cells, 25 and 50 μM): no increase was observed; susceptibility / toxicity in MCF10A cells versus cancer cell lines ([1]; 25 μM): All cancer cell lines were found to be more susceptible; susceptibility of MCF10A cells versus cancer cell lines ([1]; 50 μM): MCF10A and PC3 cells were equally susceptible; Peak subG1 percents over 48 h ([1]; 50 μM): 35.1%; Peak subG1 percents over 48 h (MDA-MB-231 (231) cells; 50 μM): 60.0%; Ki67-positive cells (N1E-115 cells [9]): high proportion of Ki67-positive cells; Peak subG1 percents over 48 h ([2]; 50 μM): 38.3%; Peak subG1 percents over 48 h (HeLa cells; 50 μM): 79.0%; maximum (peak) subG1 fraction relative to control (HeLa cells; 50 μM): 4.3 × control; Peak subG1 percents over 48 h (PC3 cells; 50 μM): 39.5%; maximum (peak) subG1 fraction relative to control (PC3 cells; 50 μM): 16.3 × control; peak CA ([4]; interphase HDFs only, 25 and 50 μM): 14-15%; inhibition at 10 µM (N1E-115 cells [11]; Mus musculus, N1E-115, 48 h, RedBr-Nos 5 μM, Griseofulvin 10 μM): 70 to 80%
 | COc1ccc2c(c1OC)C(=O)O[C@@H]2[C@H]1c2c(c(Br)c3c(c2OC)OCO3)CCN1C [BN, bromonoscapine] | neither concentrations of Nos or BN significantly increased CA over control levels | did not cause a significant increase | 3.5% | 3.0% | 32.5% | 65.2% | 16.5% | 20.4% | the same was true for 231 and PC3 cells | 42.0% | 54.9% | 46.0% | 42.8% | did not significantly increase the extent of CA over controls |  |  | 9.3 × control |  | much higher sub-G1 population compared to parent ZR-75-30 cells | maximum (peak) subG1 fraction relative to control (HeLa cells; 25 μM): 4.4 × control; maximum (peak) subG1 fraction relative to control (PC3 cells; 25 μM): 9.2 × control
0.05 µM | CC(=O)O[C@H]1C(=O)[C@@]2(C)[C@H]([C@H](OC(=O)c3ccccc3)[C@]3(O)C[C@H](OC(=O)[C@H](O)[C@@H](NC(=O)c4ccccc4)c4ccccc4)C(C)=C1C3(C)C)[C@]1(OC(C)=O)CO[C@@H]1C[C@@H]2O [Paclitaxel, paclitaxel] |  |  |  |  |  |  |  |  |  |  |  |  |  |  | 0.08 | interphase Golgi complex fragmented |  | less severe |  | inhibition of neurite extension (N1E-115 cells [11]; 48 h, PJ-34 10 μM, Paclitaxel 0.05 μM): moderate inhibition
